Results published in PubChem BioAssay (NCI).
Where “and” joins values, the source holds several entries; their conditions need not be identical. Equal values may be shown once.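 Grown in 96-well plates, cells were treated for 48 hours with each compound at five concentrations. Insufficient inhibition: endpoint recorded as highest concentration tested. Here, GI50 denotes the concentration required for 50% inhibition of growth. TGI: total growth inhibition.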

Columns and labels:
Assay in all cases: DTP human tumour cell line panel, 48 h
DMS 114 small cell lung = test system: DMS 114 small cell lung
HOP-18 NSCLC = test system: HOP-18 NSCLC
KM20L2 colon = test system: KM20L2 colon
M19-MEL melanoma = test system: M19-MEL melanoma
DMS 273 small cell lung = test system: DMS 273 small cell lung
MDA-MB-435 = test system: MDA-MB-435
MCF7 breast = test system: MCF7 breast
MDA-N = test system: MDA-N

Compound	TGI (DMS 114 small cell lung)	TGI (HOP-18 NSCLC)	TGI (KM20L2 colon)	TGI (M19-MEL melanoma)	TGI (DMS 273 small cell lung)	GI50 (MDA-MB-435)	TGI (MDA-MB-435)	GI50 (MCF7 breast)	TGI (MCF7 breast)	other results
O=C1CCCCC1S(=O)(=O)c1ccccc1 (stereo unspecified)	> 100 µM	> 100 µM	> 100 µM	> 100 µM	> 100 µM					
O=C(Nc1ccc(Br)cc1F)c1cc(I)ccc1O						3.04 µM	10.1 µM	1.97 µM	> 100 µM	
NC(=O)CN(CC(N)=O)C(N)=O	> 100 µM	> 100 µM	> 100 µM	> 100 µM	> 100 µM					
Cc1c(C(=O)Nc2ccccc2)sc2ncn(Cc3cccc(Cl)c3)c(=O)c12						24.2 µM	> 100 µM	10.6 µM	> 100 µM	
N/N=C(/C(=O)Nc1cccc(Cl)c1)C(C(=O)c1ccc(O)cc1O)C1OC(=O)c2ccccc21 (stereo unspecified)	> 100 µM		> 100 µM	> 100 µM	> 100 µM					
O=C(/C=C/Sc1cc(C(F)(F)F)cc(C(F)(F)F)c1)c1ccc(Cl)cc1						4.22 µM	15.3 µM	13.6 µM	35.8 µM	
CC(CN(C)C)/C(=N\Nc1ccccc1)c1ccccc1 (stereo unspecified)	20.5 µM	67.3 µM	0.333 µM	14.5 µM	12.1 µM					
NCCCC[C@@H]1NC(=O)[C@H]2CCCN2C(=O)[C@H](Cc2ccccc2)CNC(=O)[C@H](Cc2ccccc2)NC1=O						> 37.5 µM	> 37.5 µM	> 37.5 µM	> 37.5 µM	
CC(=O)Nc1ccc(S(=O)(=O)N/N=C/CN2C(=O)c3ccccc3C2=O)cc1	> 100 µM		> 100 µM	> 100 µM	> 100 µM					
Cc1cc(NCCCN(C)C)c2ccc3c(ccc4c(NCCCN(C)C)cc(C)nc43)c2n1						0.226 µM	0.539 µM	0.0635 µM	0.302 µM	
CN(C)CCN1C(=O)c2c(c3c4ccccc4n4c3c3c2c2ccccc2n3C2CC(O)C(O)C4(C)O2)C1=O (stereo unspecified)						2 µM	7.99 µM	0.58 µM	7.44 µM	
O=C(C/C(=N/O)C(=O)NC1=C(Cl)C(=O)c2ccccc2C1=O)CC(c1ccccc1)c1c(O)c2ccccc2oc1=O (stereo unspecified)							4.72 µM		26.8 µM	TGI (MDA-N): 3.09 µM
O=C1OCC2=C1C(c1cccc(Cl)c1)c1cc3c(cc1N2CCO)OCCO3 (stereo unspecified)						0.0236 µM	0.0626 µM	0.0379 µM	97.6 µM	
COc1ccc2c(CN3CCCC[C@H]3C(=O)O)cc3cc4c(cc3c2c1)OCO4						1.05 µM	4.09 µM	0.366 µM	2.8 µM	
COc1ccc(C/C(C)=C(/c2ccc(OCCN3CCCCC3)cc2)c2ccc(OC(=O)NCc3ccccc3)cc2)cc1						0.393 µM	0.736 µM	0.0568 µM	0.512 µM	
COc1cccc(N2C(=O)C3c4[nH]c5ccccc5c4C4CCCC4C3C2=O)c1 (stereo unspecified)							> 10 µM		> 10 µM	TGI (MDA-N): > 10 µM
COc1cccc(-c2c[nH]c3c(N/N=C/c4ccncc4)ncnc23)c1						1.83 µM	6.9 µM	1.93 µM	5.91 µM	

Compound	TGI (DMS 114 small cell lung)	TGI (HOP-18 NSCLC)	TGI (KM20L2 colon)	TGI (M19-MEL melanoma)	TGI (DMS 273 small cell lung)	GI50 (MDA-MB-435)	TGI (MDA-MB-435)	GI50 (MCF7 breast)	TGI (MCF7 breast)	other results
C=C/C=C/NC(=O)OCc1ccccc1	> 100 µM	> 100 µM	> 100 µM	> 100 µM	> 100 µM					
C[C@@H]1[C@H](C)N1CC(O)Cn1ccnc1[N+](=O)[O-] (stereo partly specified)							> 100 µM		> 100 µM	TGI (MDA-N): > 100 µM
COc1ccc(CCN2CC=Cn3c2nc2ccccc2c3=O)cc1								0.0307 µM	> 43 µM	
C[C@H]1CC[C@@]2(NC1)O[C@H]1C[C@H]3[C@@H]4CC[C@H]5C[C@@H](O)CC[C@]5(C)[C@H]4CC[C@]3(C)[C@H]1[C@@H]2C						17.3 µM	50 µM	12.9 µM	36.8 µM and > 100 µM	TGI (MDA-N): > 100 µM
COc1cc2c[n+](C)c3c4cc(OC)c(OC(C)C)cc4ccc3c2cc1OC	26.7 µM	> 100 µM	> 100 µM	48.7 µM	97.6 µM					
COc1cc(OC)c(C/C=C/c2ccccc2)cc1O							30.7 µM			TGI (MDA-N): 38.8 µM
C=CCN=C(N/N=C/c1ccc([N+](=O)[O-])o1)NS(=O)(=O)c1cc(C(=O)Nc2ccc(Cl)cc2)c(Cl)cc1SC						2.88 µM	7.05 µM	1.28 µM	> 100 µM	
COc1ccc2c(c1)C(=O)c1ccc(OC)cc1C2=S	> 100 µM	> 100 µM	> 100 µM	> 100 µM	> 100 µM					
CC1=NN(C(=O)c2ccccc2O)C(=O)/C1=C/c1ccc(O)cc1	16.1 µM		> 100 µM						> 100 µM	TGI (MDA-N): > 100 µM
CC[C@@]1(O)C(=O)OCc2c1cc1n(c2=O)Cc2cc3cc4c(cc3nc2-1)OCO4	0.0273 µM and 0.0398 µM	0.609 µM	> 100 µM	0.262 µM and 0.18 µM	0.195 µM					GI50 (HOP-18 NSCLC): < 0.001 µM; GI50 (KM20L2 colon): 0.0569 µM
Cc1nc(Nc2ccccc2)sc1C(=O)CC(=O)C(=O)Nc1c(C(C)C)cccc1C(C)C	> 100 µM	> 100 µM	> 100 µM	> 100 µM	> 100 µM					
O=[N+]([O-])c1ccc(-n2nnc(C3=NCCN3)c2-c2ccccc2)cc1	> 100 µM	> 100 µM	> 100 µM	> 100 µM	> 100 µM					
CN1CCN(C(=O)C(C)(C)c2ccc(C(=O)Nc3cn4cc(-c5ccncc5)ccc4n3)cc2)CC1						0.367 µM	17.5 µM	0.282 µM	> 100 µM	
NC(=O)N/N=C1/CCC(O)CC1CC(=O)O (stereo unspecified)							> 100 µM		> 100 µM	TGI (MDA-N): > 100 µM
C=Cc1cncc(C#N)c1CCc1c(C#N)cncc1C=C	> 10 µM	> 10 µM	> 100 µM	> 100 µM	> 100 µM					GI50 (KM20L2 colon): > 100 µM; GI50 (M19-MEL melanoma): > 100 µM; GI50 (DMS 273 small cell lung): > 100 µM
O=C1C=CC(=O)C2=C1[C@@H](O)C1CC=CC3C(=O)O[C@@H]2C31 (stereo partly specified)	51.3 µM	> 62 µM	60.9 µM	> 58.3 µM	49.4 µM					
